Measurements: patent US20250163057A1, “DCN-1 MODULATING COMPOUNDS AND METHODS OF USE THEREOF” (Cellarity, Inc., priority 2023, published 2025)
Like-named read-outs stand apart in the source and are kept apart here.

Experiments:
[1] = tested on: Cullin-3 (CUL3) neddylation; experiment: AlphaLISA assay for Cullin-3 (CUL3) neddylation in TF 1 cells; assay type: cell-based; settings: Homo sapiens, TF-1, 3 h, 3 hours treatment
Procedure, shortened: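 TF 1 cells in unsupplemented IMDM treated with compound concentrations for 3 h, then lysed. CUL3 neddylation detected by AlphaLISA (biotinylated anti-NEDD8, anti-CUL3 acceptor beads overnight, streptavidin donor beads 1 h); normalized to vehicle (0%) and 1 μM DI-1548 (100%), IC50 from Hill fits.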

[2] = target: T1, DCN1 (DCUND1) protein PONY domain (Homo sapiens (Human), UniProt Q96GG9); experiment: Off-rate measurement of reversible covalent molecules (jump dilution TR-FRET with Cy5 probe); assay type: binding; settings: for Category: binding mode category from off-rate assay; for residence time: inverse of rate constant K; for residence time / half-life: jump dilution TR-FRET; for koff: jump dilution, Cy5 covalent probe 150 nM, TR-FRET; for half-life: ln(2)/K
Description: A typical covalent compound is assumed to stay bound to a protein for at least the life of that protein in the cell. In reality, there is a range of how long a covalent compounds remains bound before a reverse reaction takes place. Thus, some covalent bonds can be labeled as reversible as their reverse reaction takes place in a measurable amount of time under physiological conditions. The assay capitalizes on the range of covalent binders by using a high affinity covalent binder as a probe to displace the more reversible binders in an adaptation of the jump dilution method.
In this version of the jump dilution method, the increase in covalent probe binding over time was measured through a TR-FRET reaction between the covalent probe and the biotinylated target protein.
The recombinant form of the DCN1 (DCUND1) protein PONY domain was produced using an E. coli expression system at Viva Biotech (China). The DCN1 protein was biotinylated (EZ sulfo-NHS-LC-biotin; Thermofisher) for labeling with streptavidin terbium (Tb) cryptate in the reaction. This biotinylated protein was used in two forms of the TR-FRET assay as described below.
The off-rate measurement is executed in two steps based on the jump dilution method. […] The greatest dilution allowed within the constraints of the assay was chosen. These factors allow a competitive advantage for the covalent probe to replace the test compound when that compound releases from the target protein. The actual measure is the rate of increased TR-FRET signal as the covalent probe replaces the test compound over time. […] The resulting time dependent curve of the TR-FRET signal is fit to the following equation:
Y=Y0+(Plateau−Y0)*(1−exp(−K*x))
K is the rate constant (1/unit of time). The residence time is defined as the inverse of K, the rate constant. The half-life is calculated as ln(2)/K.

[3] = target: T1, DCN1 (DCUND1) protein PONY domain; experiment: TR-FRET assay, DCN1 binding with FAM-labeled probe
Procedure, shortened: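 Tb-DCN1 PONY domain (E. coli, biotin/streptavidin-Tb); FAM-labelled non-covalent inhibitor probe; TritonX buffer, 200 mM NaCl; 5 nM DCN1 + 20 nM probe or 0.31 nM DCN1 + 900 nM total probe; 0.1% DMSO; TR-FRET read 1, 5, 24 hrs.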

[4] = tested on: fetal hemoglobin gene HBG1; experiment: HBG1 Nanostring Assay in CD34+ HSPC erythroid differentiation culture; assay type: cell-based, human; settings: for EC50: Homo sapiens, 240 h, HBG1 induction, Day10 of erythroid differentiation; for Nanostring Ymax obs (%): relative to a control compound (C1)
Procedure, shortened: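 CD34+ HSPCs were dosed from day −2 (0.1% DMSO) through two-phase erythroid differentiation (EPO, transferrin, SCF, IL-3, insulin; IL-3 removed from day 7) at 37° C, 5% CO2. Day-10 lysates of 100K cells were hybridized at 67° C for 22 h for nCounter counting, normalized to ERCC and housekeeping controls. EC50 and Ymax were derived, with Ymax relative to a control compound.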

DCN1 protein = DCN1 protein (Homo sapiens (Human), UniProt Q96GG9); experiment: Intact Protein MS Analysis with the RapidFire-TOF System (covalent adduct formation); assay type: binding; settings: MS Emax; 400 nM DCN1, 3 hours at room temperature
Procedure, shortened: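 Tag-cleaved human DCN1 (400 nM) expressed in E. coli, in 25 mM Tris-HCl, 200 mM NaCl, 1 mM DTT, was incubated with 11 compound concentrations for 3 h at room temperature and quenched with 0.2% formic acid. Intact-protein Q-TOF MS with deconvolution detected the compound adduct mass.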

[5] = 24 hr after treatment with compound, read-out: TR FRET IC50 24 hr
[6] = read-out: TR FRET IC50 1 hr, 1 hr after treatment with compound
[7] = TR FRET IC50 1 hr (nM), 1 hr after treatment with compound

Sequence of DCN1 protein (Q96GG9 whole entry): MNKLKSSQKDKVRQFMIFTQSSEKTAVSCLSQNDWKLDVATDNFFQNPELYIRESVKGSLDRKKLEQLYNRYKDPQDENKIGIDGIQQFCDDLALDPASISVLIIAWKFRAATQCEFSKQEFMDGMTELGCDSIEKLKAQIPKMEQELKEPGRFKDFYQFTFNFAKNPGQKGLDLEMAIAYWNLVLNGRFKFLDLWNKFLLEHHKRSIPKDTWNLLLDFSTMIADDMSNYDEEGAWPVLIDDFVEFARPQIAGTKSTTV
T1 sequence (Q96GG9 60-248): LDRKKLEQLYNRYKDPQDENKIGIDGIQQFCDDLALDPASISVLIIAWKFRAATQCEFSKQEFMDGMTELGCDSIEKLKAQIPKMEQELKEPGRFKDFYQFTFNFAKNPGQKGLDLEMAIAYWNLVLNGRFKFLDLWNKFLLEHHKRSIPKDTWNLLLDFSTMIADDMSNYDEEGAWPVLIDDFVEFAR

CCN1C(=O)[C@@H](NC(=O)c2cccc(C(F)(F)F)c2)[C@@H](C2CC2)c2c(C(=O)N3CC[C@H]3C#N)nn(C3CCOCC3)c21 [Compound I-660]
IC50 [1]: ≤ 100 nM
Category [2]: reversible covalent
residence time [2]: 266 min
koff [2]: 6.28e-05 s⁻¹
half-life [2]: 3.07 h
IC50 [3, 5]: ≤ 200 nM
IC50 [3, 6]: ≤ 200 nM

CCN1C(=O)[C@@H](NC(=O)c2cccc(C(F)(F)F)c2)[C@@H](C2CC2)c2c(C(=O)N3CCN(C)C[C@H]3C#N)nn(C3CCOCC3)c21 (single isomer, unassigned) [Compound I-430]
IC50 [1]: ≤ 100 nM
Category [2]: slow reversible
IC50 [3, 5]: ≤ 200 nM
IC50 [3, 7]: 200 to 1000 nM

CCN1C(=O)[C@@H](NC(=O)c2cccc(C(F)(F)F)c2)[C@@H](C2CC2)c2c(C(=O)N3CS(=O)(=O)C[C@@H]3C#N)nn(C3CCOCC3)c21 [Compound I-560]
IC50 [1]: ≤ 100 nM
Category [2]: fast reversible
residence time [2]: 44.1 min
koff [2]: 0.000378 s⁻¹
half-life [2]: 0.509 h
IC50 [3, 5]: ≤ 200 nM
IC50 [3, 6]: ≤ 200 nM

CCN1C(=O)[C@H](NC(=O)c2cccc(C(F)(F)F)c2)[C@@H](c2ccc(F)cc2)c2c(CNC(=O)/C(C)=C/C(=O)OC)nn(-c3ccccc3)c21 [Compound I-108]
IC50 [1]: ≤ 100 nM
EC50 [4]: > 1000 nM
Nanostring Ymax obs (%) [4]: ++ (Nanostring Ymax greater than 50.0 and less than or equal to 100.0)
IC50 [3, 5]: 200 to 1000 nM
IC50 [3, 7]: 200 to 1000 nM
% Adduct Formation (DCN1 protein): + (MS Emax % adduct formation greater than or equal to 0.0 and less than or equal to 30.0)

CCN1C(=O)[C@@H](NC(=O)c2cccc(C(F)(F)F)c2)[C@@H](c2ccc(F)cc2)c2c(CN(C)C(=O)/C=C/C(=O)OC)nn(-c3ccccc3)c21 (racemic) [Compound I-107, methyl (˜{E})-4-[[(4˜{R},5˜{S})-7-ethyl-4-(4-fluorophenyl)-6-oxo-1-phenyl-5-[[3-(trifluoromethyl)benzoyl]amino]-4,5-dihydropyrazolo[3,4-b]pyridine-3-yl]methyl-methyl-amino]-4-oxo-but-2-enoate]
IC50 [1]: ≤ 100 nM
EC50 [4]: ≤ 100 nM
Nanostring Ymax obs (%) [4]: +++ (Nanostring Ymax greater than 100.0)
IC50 [3, 5]: ≤ 200 nM
IC50 [3, 6]: ≤ 200 nM
% Adduct Formation (DCN1 protein): +++ (MS Emax % adduct formation greater than 80.0 and less than or equal to 100.0)

C=C(CC(=O)NCc1nn(-c2ccccc2)c2c1[C@@H](c1ccc(F)cc1)[C@H](NC(=O)c1cccc(C(F)(F)F)c1)C(=O)N2CC)C(=O)OC [Compound I-132]
IC50 [1]: 100 to 1000 nM
EC50 [4]: > 1000 nM
Nanostring Ymax obs (%) [4]: + (Nanostring Ymax greater than or equal to 0.0 and less than or equal to 50.0)
IC50 [3, 5]: ≤ 200 nM
IC50 [3, 7]: 200 to 1000 nM
% Adduct Formation (DCN1 protein): ++ (MS Emax % adduct formation greater than 30.0 and less than or equal to 80.0)

CCN1C(=O)[C@@H](NC(=O)c2cccc(C(F)(F)F)c2)[C@@H](C)c2c(C(=O)N3[C@H](C#N)C[C@H]4C[C@H]43)nn(C3CCOCC3)c21 (mixture of isomers) [Compound I-386]
IC50 [1]: ≤ 100 nM
EC50 [4]: ≤ 100 nM
Nanostring Ymax obs (%) [4]: +++ (Nanostring Ymax greater than 100.0)
IC50 [3, 5]: ≤ 200 nM
IC50 [3, 6]: ≤ 200 nM
% Adduct Formation (DCN1 protein): +++ (MS Emax % adduct formation greater than 80.0 and less than or equal to 100.0)

C=C(C(=O)O)c1nn(-c2ccccc2)c2c1[C@H](c1ccc(F)cc1)[C@H](NC(=O)c1cccc(C(F)(F)F)c1)C(=O)N2CC (racemic) [Compound I-53, rac-2-((4R,5R)-7-ethyl-4-(4-fluorophenyl)-6-oxo-1-phenyl-5-(3-(trifluoromethyl)benzamido)-4,5,6,7-tetrahydro-1H-pyrazolo[3,4-b]pyridine-3-yl)acrylic acid]
IC50 [1]: 100 to 1000 nM
EC50 [4]: > 1000 nM
Nanostring Ymax obs (%) [4]: +++ (Nanostring Ymax greater than 100.0)
IC50 [3, 5]: 200 to 1000 nM
IC50 [3, 7]: 1000 to 3000 nM
% Adduct Formation (DCN1 protein): ++ (MS Emax % adduct formation greater than 30.0 and less than or equal to 80.0)

C=C(CN1CCOCC1)C(=O)Nc1nn(-c2ccccc2)c2c1[C@H](c1ccc(F)cc1)[C@H](NC(=O)c1cccc(C(F)(F)F)c1)C(=O)N2CC (racemic) [Compound I-75]
IC50 [1]: ≤ 100 nM
Nanostring Ymax obs (%) [4]: +++ (Nanostring Ymax greater than 100.0)
IC50 [3, 5]: ≤ 200 nM
IC50 [3, 6]: ≤ 200 nM
% Adduct Formation (DCN1 protein): +++ (MS Emax % adduct formation greater than 80.0 and less than or equal to 100.0)

CCN1C(=O)[C@@H](NC(=O)c2cccc(C(F)(F)F)c2)[C@@H](c2ccc(F)cc2)c2c(NC(=O)[C@@H](C)Cl)nn(-c3ccccc3)c21 (mixture of isomers) [Compound I-101]
IC50 [1]: 100 to 1000 nM
EC50 [4]: > 1000 nM
Nanostring Ymax obs (%) [4]: ++ (Nanostring Ymax greater than 50.0 and less than or equal to 100.0)
IC50 [3, 5]: 200 to 1000 nM
IC50 [3, 7]: 200 to 1000 nM
% Adduct Formation (DCN1 protein): + (MS Emax % adduct formation greater than or equal to 0.0 and less than or equal to 30.0)

C/C=C(\CN1CCOCC1)C(=O)NCc1nn(-c2ccccc2)c2c1[C@@H](c1ccc(F)cc1)[C@H](NC(=O)c1cccc(C(F)(F)F)c1)C(=O)N2CC (racemic) [Compound I-27]
IC50 [1]: ≤ 100 nM
EC50 [4]: 100 to 1000 nM
Nanostring Ymax obs (%) [4]: ++ (Nanostring Ymax greater than 50.0 and less than or equal to 100.0)
IC50 [3, 5]: ≤ 200 nM
IC50 [3, 6]: ≤ 200 nM
% Adduct Formation (DCN1 protein): + (MS Emax % adduct formation greater than or equal to 0.0 and less than or equal to 30.0)

CCN1C(=O)[C@@H](NC(=O)c2cccc(C(F)(F)F)c2)[C@@H](C2CC2)c2c(C(=O)N(C)CC#N)nn(C3CCOCC3)c21 [Compound I-374]
IC50 [1]: ≤ 100 nM
EC50 [4]: ≤ 100 nM
Nanostring Ymax obs (%) [4]: +++ (Nanostring Ymax greater than 100.0)
IC50 [3, 5]: ≤ 200 nM
IC50 [3, 7]: 200 to 1000 nM
% Adduct Formation (DCN1 protein): +++ (MS Emax % adduct formation greater than 80.0 and less than or equal to 100.0)

CC#CC(=O)Nc1nn(-c2ccccc2)c2c1[C@H](c1ccc(F)cc1)[C@H](NC(=O)c1cccc(C(F)(F)F)c1)C(=O)N2CC (racemic) [Compound I-51]
IC50 [1]: 100 to 1000 nM
EC50 [4]: 100 to 1000 nM
Nanostring Ymax obs (%) [4]: +++ (Nanostring Ymax greater than 100.0)
IC50 [3, 5]: 200 to 1000 nM
IC50 [3, 7]: 200 to 1000 nM
% Adduct Formation (DCN1 protein): + (MS Emax % adduct formation greater than or equal to 0.0 and less than or equal to 30.0)
